We go through 5 compounds from publication PMC10035947, “Development of novel anilinoquinazoline-based carboxylic acids as non-classical carbonic anhydrase IX and XII inhibitors” (Journal of Enzyme Inhibition and Medicinal Chemistry, 2023).

For series [1], the target named is T1, hCA IX (Homo sapiens, UniProt Q16790).
T1 construct: made in house
Put plainly: stopped flow CO2 hydrase assay. The format is biochemical. The settings on record: for Selectivity ratio II/IX: KI hCA II / KI hCA IX; for pKi: mean from 3 assays. The method, then:
(§1) Carbonic anhydrase inhibition assay
(§2) The carbonic anhydrase catalyzed CO2 hydration actions for the quinazoline-based […]
(§3) Photophysics stopped-flow, as described previously. The enzymes are recombinant proteins prepared in our lab. Phenol red (at a concentration of 0.2 mM) has been used as indicator, working at the absorbance maximum of 557 nm, with 20 mM Hepes (pH 7.5) as buffer, and 20 mM Na2SO4 (for maintaining constant the ionic strength), following the initial rates of the CA- […]
(§4) 1.7 to 17 mM for the determination of the kinetic parameters and inhibition constants. For each […]
(§5) initial velocity. The uncatalyzed rates were determined in the same manner and subtracted from the total observed rates. Stock solutions of inhibitor (0.1 mM) were prepared in distilled-deionized water and dilutions up to 0.01 nM were done thereafter with the assay buffer. Inhibitor and enzyme solutions were preincubated together for 15 min at room temperature prior to assay, in order to allow for the formation of the E-I complex. The inhibition constants were obtained by non-linear least-squares methods using PRISM 3 and the Cheng-Prusoff equation, and represent the mean from at least three different determinations.

For series [2], the target named is T2, hCA XII (Homo sapiens, UniProt O43570).
T2 construct: made in house
T2 sequence (O43570 25-354): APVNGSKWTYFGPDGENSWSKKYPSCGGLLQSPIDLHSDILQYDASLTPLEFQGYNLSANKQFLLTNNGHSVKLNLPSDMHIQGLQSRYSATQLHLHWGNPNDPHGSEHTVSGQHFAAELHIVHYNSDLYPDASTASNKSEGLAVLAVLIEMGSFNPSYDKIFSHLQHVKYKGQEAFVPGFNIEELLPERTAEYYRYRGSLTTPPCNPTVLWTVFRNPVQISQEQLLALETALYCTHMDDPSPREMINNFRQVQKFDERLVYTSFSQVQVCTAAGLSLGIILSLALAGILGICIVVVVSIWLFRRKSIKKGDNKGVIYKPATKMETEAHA
Put plainly: stopped flow CO2 hydrase assay. The format is biochemical. Particulars: for Selectivity ratio I/XII: KI hCA I / KI hCA XII; for Selectivity ratio II/XII: KI hCA II / KI hCA XII; for pKi: mean from 3 assays. The method, then:
as §1, §2, §3, §4, §5

In the next series the target is T3, hCA I (Homo sapiens, UniProt P00915).
T3 construct: made in house
T3 sequence (P00915 whole entry): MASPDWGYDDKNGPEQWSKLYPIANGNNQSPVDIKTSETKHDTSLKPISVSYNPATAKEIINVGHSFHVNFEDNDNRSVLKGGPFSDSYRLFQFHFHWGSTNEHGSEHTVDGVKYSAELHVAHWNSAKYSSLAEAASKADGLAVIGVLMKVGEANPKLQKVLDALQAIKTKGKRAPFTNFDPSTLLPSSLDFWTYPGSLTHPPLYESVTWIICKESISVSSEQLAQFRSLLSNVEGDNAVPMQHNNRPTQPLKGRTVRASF
Put plainly: stopped flow CO2 hydrase assay. The format is biochemical. Particulars: mean from 3 assays. The method, then:
as §1, §2, §3, §4, §5

In another series the target is T4, hCA II (Homo sapiens, UniProt P00918).
T4 construct: made in house
Put plainly: stopped flow CO2 hydrase assay. The format is biochemical. The settings on record: mean from 3 assays. The protocol: as §1
The carbonic anhydrase catalyzed CO2 hydration actions for the quinazoline-based carboxylic acid derivatives (6a-c, 7a-c and 8a-c) were assayed utilizing an instrument of Applied Photophysics stopped-flow, as described previously. The enzymes are recombinant proteins prepared in our lab. Phenol red (at a concentration of 0.2 mM) has been used as indicator, working at the absorbance maximum of 557 nm, with 20 mM Hepes (pH 7.5) as buffer, and 20 mM Na2SO4 (for maintaining constant the ionic strength), following the initial rates of the CA- […]
as §5, with “1.7 to 17 mM for the determination of the kinetic parameters and inhibition constants. For each inhibitor at least six traces of the initial 5-10% of the reaction have been used for determining the initial” for “initial”

The target of series [3] is T1, hCA IX. The settings on record: cited from earlier work.
For series [4], the target named is T2, hCA XII. Particulars: cited from earlier work.

pKi: −log10 of the molar value. Where two headings read alike, the source gives them in different places.

Regarding `Cc1cccc(-c2nc(Nc3cccc(C(=O)O)c3)c3ccccc3n2)c1` [7a, 3-((2-(m-Tolyl)quinazolin-4-yl)amino)benzoic acid], at hCA IX [1], the “Selectivity ratio II/IX” value worked out at 0.89 and the pKi is 4.53. In addition, at hCA XII [2], the “Selectivity ratio I/XII” value stood at 20.8, the “Selectivity ratio II/XII” value came to 5.42 and the negative logarithm of the Ki (pKi) was 5.32. The compound further gave a pKi at hCA I of under 4.00. The pKi at hCA II was 4.59.

As for `COc1ccc(-c2nc(Nc3cccc(C(=O)O)c3)c3ccccc3n2)cc1` [7c, 3-((2–(4-Methoxyphenyl)quinazolin-4-yl)amino)benzoic acid], the melting point was in the range of 244 to 246 °C. At hCA IX [1], the “Selectivity ratio II/IX” value amounted to 2.72 and the pKi was 4.50. At hCA XII [2], the “Selectivity ratio II/XII” value is listed as 178.75 and the pKi was 6.32. Also, the pKi at hCA I was under 4.00. Further, the pKi at hCA II was 4.07.

The compound `COc1ccc(-c2nc(Nc3ccc(C(=O)O)cc3)c3ccccc3n2)cc1` [8c, 4-((2–(4-Methoxyphenyl)quinazolin-4-yl)amino)benzoic acid] displayed a melting point of over 300 °C. Further, the “Selectivity ratio I/IX” value on hCA IX [1] (KI hCA I / KI hCA IX) is 14.7. Besides, at hCA IX [1], the “Selectivity ratio II/IX” value is recorded as 1.02 and the negative-log Ki (pKi) was 5.35. Moreover, on hCA XII [2], the “Selectivity ratio I/XII” value came out at 265.2, the “Selectivity ratio II/XII” value was 18.40 and the pKi was 6.60. At hCA I, this compound gave a negative logarithm of the Ki (pKi) of 4.18. Also, the pKi at hCA II is 5.34.

For the compound `O=C(O)c1ccc(N/C=C/C(=O)c2ccc(F)cc2)cc1` [III], the pKi on hCA IX [3] was 6.04; at hCA XII [4], 5.96.

As for `Cc1c(NC(=O)Nc2cccc(C(=O)O)c2)oc2ccccc12` [I], the pKi was 6.10 at hCA IX [3] and 5.64 at hCA XII [4].
